# Test results from patent publication US20100029609A1 (priority 2006, published 2010).
# Target: T1, human S1P1 receptors (Homo sapiens, UniProt P21453)
# T1 construct: expressed in transfected cells; host or cells: HeLa (human cervix carcinoma, ATCC CCL2), HeLa-S1P1/Gα16 cell clone 1
# Experiment: Human S1P Receptor Calcium FLIPR Antagonist Assay, HeLa Gα16 S1P1
# Type: cell-based
# Conditions: HeLa-S1P1/Gα16 cells; antagonism of Ca2+ signal of probing agonist GNF-AC-1 at EC80
# Description: Human S1P Receptor Calcium FLIPR Antagonist Assays
# The assay measures intracellular changes of Ca^2+ mediated by the synthetic probing agonist 3-{[2-(2-Trifluoromethyl-biphenyl-4-yl)-benzo[b]thiophen-5-ylmethyl]-amino}-propionic acid (GNF-AC-1) in the HeLa-S1P1/Gα16 cell clone 1: HeLa (human cervix carcinoma, ATCC CCL2) cells stably expressing N-terminally myc-tagged human S1P1 receptors (GenBank™ accession No. NM_001400; UNIPROT P21453) and promiscuous Gα16 protein (GenBank™ accession number M63904, Swissprot P30679) are cultured at 37° C., 5% CO2, and 95% relative humidity. The cells are plated in 384 well black plates (10,000 cells per well). After 24 hours the cells are loaded with Fluo4-AM (1.6 μM in HBSS and 2.5 mM probenicid) for 1 hour at 37° C. After washing, the cells are transferred to the FLIPR. The test compounds are added at different concentrations (≦30 μM) in HBSS in the presence of 0.1% BSA and changes in fluorescence are recorded (indication of agonism). The probing agonist is added 15 minutes afterwards to the wells at a concentration giving 80% of the maximal activity (EC80). After each addition time points are collected as follows: 20 time points (2 seconds) before the addition of the agonist (Fmin) and 60 time points (1 or 2 seconds) after the addition of the probing agonist. This allows the determination of the maximal fluorescence (Fmax). The ratio (Fmax-Fmin)/Fmin is plotted against the log of the concentration of the test compounds and the IC50 (relative antagonism) is determined with the help of XLfit-4 software. […] A dose response curve of the probing agonist is determined on each plate in parallel. The compounds of the invention are typically active in this assay at a concentration ranging typically from <1 nM to 30 μM, usually from less than 1 nanomolar to 1 micromolar.
# T1 sequence (P21453 whole entry): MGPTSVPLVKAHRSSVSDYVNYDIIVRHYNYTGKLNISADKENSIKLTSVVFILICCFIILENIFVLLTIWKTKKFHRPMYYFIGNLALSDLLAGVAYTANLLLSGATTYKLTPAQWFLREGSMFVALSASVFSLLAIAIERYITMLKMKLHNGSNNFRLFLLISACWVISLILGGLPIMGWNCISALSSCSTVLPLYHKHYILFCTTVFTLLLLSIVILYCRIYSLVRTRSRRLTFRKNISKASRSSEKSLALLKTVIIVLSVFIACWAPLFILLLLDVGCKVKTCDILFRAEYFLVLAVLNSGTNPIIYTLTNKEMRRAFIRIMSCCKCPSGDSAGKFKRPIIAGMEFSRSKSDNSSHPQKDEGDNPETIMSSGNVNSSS
row,SMILES,IC50
1,"CC[C@H](NC(=O)c1c(C)cc(-c2cccc(NS(=O)(=O)c3cc(C)c(Cl)cc3C)c2)cc1C)C(=O)O [Example 135, (S)-2-{[3′-(4-Chloro-2,5-dimethyl-benzenesulfonylamino)-3,5-dimethyl-biphenyl-4-carbonyl]-amino}-butyric acid]",1.7 nM
2,"COC[C@H](NC(=O)c1c(C)cc(-c2cccc(NS(=O)(=O)c3cc(C)c(Cl)cc3C)c2)cc1C)C(=O)O [Example 136, (S)-2-{[3′-(4-Chloro-2,5-dimethyl-benzenesulfonylamino)-3,5-dimethyl-biphenyl-4-carbonyl]-amino}-3-methoxy-propionic acid]",1.7 nM
3,"Cc1cc(S(=O)(=O)Nc2cccc(-c3cc(C)c(C(=O)NCC(=O)O)c(C)c3)c2)c(C)cc1Cl [Example 137, {[3′-(4-Chloro-2,5-dimethyl-benzenesulfonylamino)-3,5-dimethyl-biphenyl-4-carbonyl]-amino}-acetic acid]",1 nM
4,"Cc1cc(S(=O)(=O)Nc2cccc(-c3cc(C)c(C(=O)N(C)[C@@H](CO)C(=O)O)c(C)c3)c2)c(C)cc1Cl [Example 138, (S)-2-{[3′-(4-Chloro-2,5-dimethyl-benzenesulfonylamino)-3,5-dimethyl-biphenyl-4-carbonyl]-methyl-amino}-3-hydroxy-propionic acid]",1.1 nM
5,"Cc1cc(S(=O)(=O)Nc2cccc(-c3cc(C)c(C(=O)N(C)[C@@H](C)C(=O)O)c(C)c3)c2)c(C)cc1Cl [Example 139, (S)-2-{[3′-(4-Chloro-2,5-dimethyl-benzenesulfonylamino)-3,5-dimethyl-biphenyl-4-carbonyl]-methyl-amino}-propionic acid]",1.1 nM
6,"Cc1cc(S(=O)(=O)Nc2cccc(-c3cc(C)c(C(=O)N[C@@H](CN)C(=O)O)c(C)c3)c2)c(C)cc1Cl [Example 142, (S)-3-Amino-2-{[3′-(4-chloro-2,5-dimethyl-benzenesulfonylamino)-3,5-dimethyl-biphenyl-4-carbonyl]-amino}-propionic acid]",5.5 nM
7,"Cc1cc(S(=O)(=O)Nc2cccc(-c3cc(C)c(C(=O)N[C@H](CN)C(=O)O)c(C)c3)c2)c(C)cc1Cl [Example 143, (R)-3-Amino-2-{[3′-(4-chloro-2,5-dimethyl-benzenesulfonylamino)-3,5-dimethyl-biphenyl-4-carbonyl]-amino}-propionic acid]",5 nM
8,"Cc1cc(S(=O)(=O)Nc2cccc(-c3cc(C)c(C(=O)N[C@@H](C)C(N)=O)c(C)c3)c2)c(C)cc1Cl [Example 151, 3′-(4-Chloro-2,5-dimethyl-benzenesulfonylamino)-3,5-dimethyl-biphenyl-4-carboxylic acid ((S)-1-carbamoyl-ethyl)-amide]",8 nM
9,"Cc1cc(S(=O)(=O)Nc2cccc(-c3cc(C)c(C(=O)N[C@@H](CO)C(N)=O)c(C)c3)c2)c(C)cc1Cl [Example 153, 3′-(4-Chloro-2,5-dimethyl-benzenesulfonylamino)-3,5-dimethyl-biphenyl-4-carboxylic acid ((S)-1-carbamoyl-2-hydroxy-ethyl)-amide]",3 nM
10,"CCc1cc(-c2cccc(NS(=O)(=O)c3cc(C)c(Cl)cc3C)c2)ccc1C(=O)N[C@@H](C)C(=O)O [Example 154, (S)-2-{[3′-(4-Chloro-2,5-dimethyl-benzenesulfonylamino)-3-ethyl-biphenyl-4-carbonyl]-amino}-propionic acid]",1.7 nM
11,"Cc1cc(S(=O)(=O)Nc2cccc(-c3ccc(CN[C@H](CO)C(=O)O)cc3)c2)c(C)cc1Cl [Example 157, (R)-2-{[3′-(4-Chloro-2,5-dimethyl-benzenesulfonylamino)-biphenyl-4-ylmethyl]-amino}-3-hydroxy-propionic acid]",4.7 nM

# Second part, the molecule after the results:
row,IC50,SMILES
1,4 nM,"Cc1cc(S(=O)(=O)Nc2cccc(-c3cc(C)c(C(=O)NC4(C(=O)O)CN(C(=O)OC(C)(C)C)C4)c(C)c3)c2)c(C)cc1Cl [Example 144, 3-{[3′-(4-Chloro-2,5-dimethyl-benzenesulfonylamino)-3,5-dimethyl-biphenyl-4-carbonyl]-amino}-azetidine-1,3-dicarboxylic acid mono-tert-butyl ester]"
2,2 nM,"Cc1cc(S(=O)(=O)Nc2cccc(-c3cc(C)c(C(=O)NC4(C(=O)O)CNC4)c(C)c3)c2)c(C)cc1Cl [Example 145, 3-{[3′-(4-Chloro-2,5-dimethyl-benzenesulfonylamino)-3,5-dimethyl-biphenyl-4-carbonyl]-amino}-azetidine-3-carboxylic acid]"
3,2 nM,"Cc1cc(S(=O)(=O)Nc2cccc(-c3cc(C)c(C(=O)NC4(C(=O)O)CCOCC4)c(C)c3)c2)c(C)cc1Cl [Example 146, 4-{[3′-(4-Chloro-2,5-dimethyl-benzenesulfonylamino)-3,5-dimethyl-biphenyl-4-carbonyl]-amino}-tetrahydro-pyran-4-carboxylic acid]"
4,3.5 nM,"Cc1cc(S(=O)(=O)Nc2cccc(-c3cc(C)c(C(=O)NC4(C(=O)O)CCC4)c(C)c3)c2)c(C)cc1Cl [Example 147, 1-{[3′-(4-Chloro-2,5-dimethyl-benzenesulfonylamino)-3,5-dimethyl-biphenyl-4-carbonyl]-amino}-cyclobutanecarboxylic acid]"
5,5 nM,"Cc1cc(S(=O)(=O)Nc2cccc(-c3cc(C)c(C(=O)NC(C)(C)C(=O)O)c(C)c3)c2)c(C)cc1Cl [Example 148, 2-{[3′-(4-Chloro-2,5-dimethyl-benzenesulfonylamino)-3,5-dimethyl-biphenyl-4-carbonyl]-amino}-2-methyl-propionic acid]"
6,1.7 nM,"Cc1cc(S(=O)(=O)Nc2cccc(-c3cc(C)c(C(=O)NC4(C(=O)O)CC4)c(C)c3)c2)c(C)cc1Cl [Example 149, 1-{[3′-(4-Chloro-2,5-dimethyl-benzenesulfonylamino)-3,5-dimethyl-biphenyl-4-carbonyl]-amino}-cyclopropanecarboxylic acid]"
7,1.6 nM,"Cc1cc(S(=O)(=O)Nc2cccc(-c3cc(C)c(C(=O)NC4(C(=O)O)CN(C)C4)c(C)c3)c2)c(C)cc1Cl [Example 150, 3-{[3′-(4-Chloro-2,5-dimethyl-benzenesulfonylamino)-3,5-dimethyl-biphenyl-4-carbonyl]-amino}-1-methyl-azetidine-3-carboxylic acid]"
8,2 nM,"Cc1cc(S(=O)(=O)Nc2cccc(-c3cc(C)c(C(=O)NC4(C(=O)O)CCN(C)CC4)c(C)c3)c2)c(C)cc1Cl [Example 155, 4-{[3′-(4-Chloro-2,5-dimethyl-benzenesulfonylamino)-3,5-dimethyl-biphenyl-4-carbonyl]-amino}-1-methyl-piperidine-4-carboxylic acid]"
